Usually IC50 stands for the concentration at which inhibition is half-maximal. Read a low IC50 as higher potency.

Experimental findings from ChEMBL document CHEMBL1136436, “A new model of the tautomycin-PP1 complex that is not analogous to the corresponding okadaic acid structure” (Bioorg Med Chem Lett, 2003) are described below.

Experiment [1] can be described thus: Inhibition of protein phosphatase 2A (PP2A) was determined by standard phosphorylase inhibition assay. Details: species or system Oryctolagus cuniculus.
Experiment [2] is described as follows: Inhibition of protein phosphatase 1 (PP1) was determined by standard phosphorylase inhibition assay. More on the design: species or system Oryctolagus cuniculus.

SMILES strings stand for the structures.

For `CC[C@@H](C)CC[C@H](O)[C@H](C)C(=O)C[C@@H](O)[C@H](OC)[C@H](OC(=O)C[C@@H](O)C1=C(C)C(=O)OC1=O)C(C)C`, the results for the IC50 in experiment [1] and in experiment [2] were 100 µM and 130 µM, respectively.
Regarding `CO[C@@H](CO)[C@H](OC(=O)C[C@@H](O)C1=C(C)C(=O)OC1=O)C(C)C`, the IC50 in experiment [1] was determined as 3.3 µM; in experiment [2], 4.8 µM.
Turning to `CO[C@H]([C@H](O)CC(=O)[C@@H](C)[C@@H](O)CC[C@@H](C)[C@@H]1O[C@]2(CC[C@@H](C)[C@H](CC[C@H](C)C(C)=O)O2)CC[C@@H]1C)[C@H](OC(=O)C[C@@H](O)C1=C(C)C(=O)OC1=O)C(C)C` [TAUTOMYCIN], the IC50 in experiment [1] was found to be 0.9 µM; in experiment [2] it was 0.19 µM.
